Literature values as cited in patent publication US7931880B2, “Production of silver sulfate grains using inorganic additives” (Eastman Kodak Company, priority 2007, dated 2011).

Legend:
Staphylococcus aureus = settings: in polymethylmethacrylate bone cement at 0.5% concentration
Escherichia coli = settings: in polymethylmethacrylate bone cement at 0.5% concentration
Pseudomonas aeruginosa = settings: in polymethylmethacrylate bone cement at 0.5% concentration

Row | Additive Silver Solubility (silver salt of the additive anion) [g/100 mL] | Additive Sulfate Solubility (sulfate salt of the additive cation) [g/100 mL] | Molecule | inhibition of bacterial growth (Staphylococcus aureus) | inhibition of bacterial growth (Escherichia coli) | inhibition of bacterial growth (Pseudomonas aeruginosa)
1 | 0.0070 | 7.7 | [Na+].[Na+].[O]=[W](=[O])([O-])[O-] [Na2WO4, sodium tungstate] | – | – | –
2 | – | – | [Cl][Ag] [Silver chloride] | significantly inhibit | significantly inhibit | significantly inhibit
3 | – | – | O=S(=O)([O-])[O-].[Ag+].[Ag+] [silver sulfate] | significantly inhibit | significantly inhibit | significantly inhibit
4 | – | – | silver oxide | significantly inhibit | significantly inhibit | significantly inhibit
